Measured values from ChEMBL document CHEMBL1649203, “Pharmacokinetics and safety of famciclovir in children with herpes simplex or varicella-zoster virus infection” (Antimicrob Agents Chemother, 2009).

Assays:
Homo sapiens [1] = assay: Toxicity in orally dosed HSV-infected patient assessed as incidence of cough administered as bid; type: organism-based; conditions: in vivo, po
Homo sapiens [2] = assay: Toxicity in VZV-infected 1 to <2 years aged pediatric patient assessed as incidence of headache at 40.8 mg/kg, po tid; type: organism-based; parameters: dose 40.8 mg/kg, route oral; conditions: in vivo
[3] = Cmax in 1 to <2 years aged pediatric patient administered as single dose; type: ADME, organism-based; conditions: human, in vivo
Homo sapiens [4] = assay: Toxicity in orally dosed VZV-infected patient assessed as incidence of diarrhea administered as tid; type: organism-based; conditions: in vivo, po
Homo sapiens [5] = assay: Toxicity in orally dosed VZV-infected patient assessed as incidence of pruritus administered as tid; type: organism-based; conditions: in vivo, po
[6] = Half life in 2 to <6 years aged pediatric patient administered as single dose; type: ADME, organism-based; conditions: human, in vivo
Homo sapiens [7] = assay: Toxicity in HSV-infected 1 to <2 years aged pediatric patient assessed as incidence of vomiting at 30.9 mg/kg, po bid; type: organism-based; parameters: dose 30.9 mg/kg, route oral; conditions: in vivo
Homo sapiens [8] = assay: Toxicity in HSV-infected 2 to <6 years aged pediatric patient assessed as incidence of nausea at 27.6 mg/kg, po bid; type: organism-based; parameters: dose 27.6 mg/kg, route oral; conditions: in vivo
Homo sapiens [9] = assay: Toxicity in orally dosed VZV-infected patient assessed as incidence of abdominal pain administered as tid; type: organism-based, Abdomen; conditions: in vivo, po
Homo sapiens [10] = assay: AUC (0 to infinity) in 2 to <6 years aged pediatric patient administered as single dose; type: ADME, organism-based, Plasma; parameters: time infinity; conditions: in vivo
Homo sapiens [11] = assay: Toxicity in VZV-infected 2 to <6 years aged pediatric patient assessed as incidence of abdominal pain at 40.6 mg/kg, po tid; type: organism-based, Abdomen; parameters: dose 40.6 mg/kg, route oral; conditions: in vivo
Homo sapiens [12] = assay: Toxicity in orally dosed HSV-infected patient assessed as at least one adverse event administered as bid; type: organism-based; conditions: in vivo, po
Homo sapiens [13] = assay: Toxicity in VZV-infected 6 to <=12 years aged pediatric patient assessed as at least one adverse event at 35.5 mg/kg, po tid; type: organism-based; parameters: dose 35.5 mg/kg, route oral; conditions: in vivo
Homo sapiens [14] = assay: Toxicity in HSV-infected 2 to <6 years aged pediatric patient assessed as pyrexia at 27.6 mg/kg, po bid; type: organism-based; parameters: dose 27.6 mg/kg, route oral; conditions: in vivo
Homo sapiens [15] = assay: Toxicity in VZV-infected 2 to <6 years aged pediatric patient assessed as incidence of diarrhea at 40.6 mg/kg, po tid; type: organism-based; parameters: dose 40.6 mg/kg, route oral; conditions: in vivo
Homo sapiens [16] = assay: Toxicity in VZV-infected 1 to <2 years aged pediatric patient assessed as at least one adverse event at 40.8 mg/kg, po tid; type: organism-based; parameters: dose 40.8 mg/kg, route oral; conditions: in vivo
Homo sapiens [17] = assay: Toxicity in orally dosed HSV-infected patient assessed as incidence of vomiting administered as bid; type: organism-based; conditions: in vivo, po
Homo sapiens [18] = assay: Toxicity in VZV-infected 6 to <=12 years aged pediatric patient assessed as incidence of pruritus at 35.5 mg/kg, po tid; type: organism-based; parameters: dose 35.5 mg/kg, route oral; conditions: in vivo
Homo sapiens [19] = assay: Toxicity in orally dosed VZV-infected patient assessed as incidence of headache administered as tid; type: organism-based; conditions: in vivo, po
Homo sapiens [20] = assay: Toxicity in VZV-infected 6 to <=12 years aged pediatric patient assessed as incidence of diarrhea at 35.5 mg/kg, po tid; type: organism-based; parameters: dose 35.5 mg/kg, route oral; conditions: in vivo
Homo sapiens [21] = assay: Toxicity in VZV-infected 1 to <2 years aged pediatric patient assessed as incidence of diarrhea at 40.8 mg/kg, po tid; type: organism-based; parameters: dose 40.8 mg/kg, route oral; conditions: in vivo
Homo sapiens [22] = assay: Toxicity in VZV-infected 6 to <=12 years aged pediatric patient assessed as pyrexia at 35.5 mg/kg, po tid; type: organism-based; parameters: dose 35.5 mg/kg, route oral; conditions: in vivo
Homo sapiens [23] = assay: Toxicity in orally dosed VZV-infected patient assessed as incidence of nausea administered as tid; type: organism-based; conditions: in vivo, po
Homo sapiens [24] = assay: Toxicity in HSV-infected 1 to <2 years aged pediatric patient assessed as incidence of abdominal pain at 30.9 mg/kg, po bid; type: organism-based, Abdomen; parameters: dose 30.9 mg/kg, route oral; conditions: in vivo
[25] = Tmax in 6 to <=12 years aged pediatric patient administered as single dose; type: ADME, organism-based; conditions: human, in vivo
Homo sapiens [26] = assay: Toxicity in VZV-infected 6 to <=12 years aged pediatric patient assessed as incidence of nausea at 35.5 mg/kg, po tid; type: organism-based; parameters: dose 35.5 mg/kg, route oral; conditions: in vivo
Homo sapiens [27] = assay: Toxicity in HSV-infected 6 to <=12 years aged pediatric patient assessed as at least one adverse event at 23.5 mg/kg, po bid; type: organism-based; parameters: dose 23.5 mg/kg, route oral; conditions: in vivo
Homo sapiens [28] = assay: Toxicity in HSV-infected 1 to <2 years aged pediatric patient assessed as incidence of diarrhea at 30.9 mg/kg, po bid; type: organism-based; parameters: dose 30.9 mg/kg, route oral; conditions: in vivo
Homo sapiens [29] = assay: Toxicity in VZV-infected 6 to <=12 years aged pediatric patient assessed as incidence of vomiting at 35.5 mg/kg, po tid; type: organism-based; parameters: dose 35.5 mg/kg, route oral; conditions: in vivo
Homo sapiens [30] = assay: Toxicity in orally dosed HSV-infected patient assessed as incidence of abdominal pain administered as bid; type: organism-based, Abdomen; conditions: in vivo, po
Homo sapiens [31] = assay: Toxicity in VZV-infected 6 to <=12 years aged pediatric patient assessed as incidence of headache at 35.5 mg/kg, po tid; type: organism-based; parameters: dose 35.5 mg/kg, route oral; conditions: in vivo
Homo sapiens [32] = assay: AUC (0 to infinity) in 6 to <=12 years aged pediatric patient administered as single dose; type: ADME, organism-based, Plasma; parameters: time infinity; conditions: in vivo
Homo sapiens [33] = assay: Toxicity in VZV-infected 1 to <2 years aged pediatric patient assessed as incidence of nausea at 40.8 mg/kg, po tid; type: organism-based; parameters: dose 40.8 mg/kg, route oral; conditions: in vivo
Homo sapiens [34] = assay: Toxicity in orally dosed HSV-infected patient assessed as incidence of nausea administered as bid; type: organism-based; conditions: in vivo, po
Homo sapiens [35] = assay: Toxicity in HSV-infected 6 to <=12 years aged pediatric patient assessed as incidence of headache at 23.5 mg/kg, po bid; type: organism-based; parameters: dose 23.5 mg/kg, route oral; conditions: in vivo
Homo sapiens [36] = assay: Toxicity in HSV-infected 6 to <=12 years aged pediatric patient assessed as incidence of abdominal pain at 23.5 mg/kg, po bid; type: organism-based, Abdomen; parameters: dose 23.5 mg/kg, route oral; conditions: in vivo
Homo sapiens [37] = assay: Toxicity in orally dosed VZV-infected patient assessed as incidence of vomiting administered as tid; type: organism-based; conditions: in vivo, po
Homo sapiens [38] = assay: Toxicity in VZV-infected 2 to <6 years aged pediatric patient assessed as incidence of cellulitis at 40.6 mg/kg, po tid; type: organism-based; parameters: dose 40.6 mg/kg, route oral; conditions: in vivo
Homo sapiens [39] = assay: Toxicity in HSV-infected 2 to <6 years aged pediatric patient assessed as incidence of abdominal pain at 27.6 mg/kg, po bid; type: organism-based, Abdomen; parameters: dose 27.6 mg/kg, route oral; conditions: in vivo
[40] = Tmax in 1 to <2 years aged pediatric patient administered as single dose; type: ADME, organism-based; conditions: human, in vivo
Homo sapiens [41] = assay: Toxicity in HSV-infected 6 to <=12 years aged pediatric patient assessed as incidence of diarrhea at 23.5 mg/kg, po bid; type: organism-based; parameters: dose 23.5 mg/kg, route oral; conditions: in vivo
[42] = Apparent oral clearance in 2 to <6 years aged pediatric patient administered as single dose; type: ADME, organism-based; conditions: human, in vivo
Homo sapiens [43] = assay: Toxicity in HSV-infected 6 to <=12 years aged pediatric patient assessed as incidence of nausea at 23.5 mg/kg, po bid; type: organism-based; parameters: dose 23.5 mg/kg, route oral; conditions: in vivo

`Nc1nc2c(ncn2CCC(CO)CO)c(=O)[nH]1` [PENCICLOVIR] showed an Activity (Homo sapiens [1]) of 6.4%, an Activity (Homo sapiens [2]) of 0% and a Cmax [3] of 3060 ng/mL. For the same compound, the Activity (Homo sapiens [4]) was 11.3%, the Activity (Homo sapiens [5]) was 3.8% and the half-life [6] was 1.28 h. The Activity (Homo sapiens [7]) was 15.4%, the Activity (Homo sapiens [8]) was 0% and the Activity (Homo sapiens [9]) was 3.8%. The AUC (Homo sapiens [10]) was 7.23 ug/hr.ml, the Activity (Homo sapiens [11]) was 0% and the Activity (Homo sapiens [12]) was 55.3%. For the same compound, the Activity (Homo sapiens [13]) was 43.8%, the Activity (Homo sapiens [14]) was 0% and the Activity (Homo sapiens [15]) was 5.3%. For the same compound, the Activity (Homo sapiens [16]) was 38.9%, the Activity (Homo sapiens [17]) was 10.6% and the Activity (Homo sapiens [18]) was 6.3%. The Activity (Homo sapiens [19]) was 3.8%, the Activity (Homo sapiens [20]) was 18.8% and the Activity (Homo sapiens [21]) was 11.1%. For the same compound, the Activity (Homo sapiens [22]) was 6.3%, the Activity (Homo sapiens [23]) was 3.8% and the Activity (Homo sapiens [24]) was 0%. For the same compound, the Tmax [25] was 1 h, the Activity (Homo sapiens [26]) was 6.3% and the Activity (Homo sapiens [27]) was 66.7%. It also gave an Activity (Homo sapiens [28]) of 7.7%, an Activity (Homo sapiens [29]) of 0% and an Activity (Homo sapiens [30]) of 4.3%. For the same compound, the Activity (Homo sapiens [31]) was 12.5%, the AUC (Homo sapiens [32]) was 9.33 ug/hr.ml and the Activity (Homo sapiens [33]) was 0%. It also gave an Activity (Homo sapiens [34]) of 6.4%, an Activity (Homo sapiens [35]) of 22.2% and an Activity (Homo sapiens [36]) of 5.6%. The Activity (Homo sapiens [37]) was 9.4%, the Activity (Homo sapiens [38]) was 5.3% and the Activity (Homo sapiens [39]) was 6.3%. For the same compound, the Tmax [40] was 1.08 h, the Activity (Homo sapiens [41]) was 11.1% and the CL/F [42] was 410 mL/min. It also gave an Activity (Homo sapiens [43]) of 11.1%.
